How the values were obtained:
[1] = test system: Serum induced (hypertrophied) Myocytes proteins; test: Solid phase screening of small molecule biaryl Library 7 with labeled myocyte proteins; type: binding, neonatal Wistar rats
[2] = test system: normal porcine macrophage proteins; test: Solid phase screening of Library 4 with labeled porcine viral and macrophage proteins; type: binding; settings: Normal Macrophages
Text: Alternatively, the fluorescent ligand library beads containing bound protein obtained as described in Examples 47, 48, 49 and 51 were sorted using a COPAS (250) NF Bead Sorter (Union Biometrica, Somerville, Mass.) equipped with a dual detector. Both the cyanine dyes used in the labeling procedure, namely Cy 2 (emission wavelength—510 nm) and Cy 3 (emission wavelength—570 nm) were simultaneously excited at […] The bead selection window was then set-up such that all beads containing significant green fluorescence and no red flourescence were isolated. The unselected beads were then resorted to obtain beads containing red fluorescence (proteins from basal cells). […]
(§1) A typical analysis employed 100-300 laser shots. […] The possible identity of the ligand was determined (Narrowed down) by comparing the recorded mass of the ligand with the masses of all possible compounds formed in the library. […]
(§2) Isolated proteins that bound to specific ligands were identified using peptide mass fingerprinting. Mass spectra were recorded on a Bruker Reflex m MALDI time-of-flight mass spectrometer (Bruker-Daltonics, Bremen, Germany) operated in the positive reflectron mode using delayed extraction. […]

[3] = test system: basal myocyte protein; test: Solid phase screening of Library 5 with labeled myocyte protein; type: binding, neonatal Wistar rats; settings: Normal Myocytes
Method: Myocytes were prepared from 1 to 5 day old neonatal Wistar rats (University of Copenhagen) according to literature procedure described in Busk et al., 2002, Cardiovasc. Res., 56: 64-75 and plated into eight P10 culture plates at 6 million cells/plate.
Protein was extracted from myocytes prepared as described above for Example 9, using a new procedure modified from existing protocols, primarily: Arrott, et al., 1998, Anal Biochem. 258: 1-18. The media was removed from plates and adhered cells were treated for 10 minutes with ice cold phosphate buffer (0.25 mL, 10 mM, pH 7.5, augmented with 0.15 M NaCl 60 mM Benzamidine HCl, 5 mM EDTA, 10 μg/n E-64, 10 μg/mL Leu-peptin, 10 μg/mL Pepstatin A, and 1 mM PMSF). The cells were scraped off the plates and then lysed (on ice) in a sonicator (2×) using 10 seconds off/10 seconds on cycles.
The resulting suspension was augmented with CHAPS, DTT, and urea to a final concentration of CHAPS (1% w/v), DTT (5 mM), and urea (8 M). After 10-15 minutes on ice, the solution was centrifuged for 10 minutes at 15,000 rpm at 4° C. The supernatant was removed and protein content quantified using the NanoOrange Protein test (Molecular Probes, Eugene, Oreg.): Total protein recovered: 70.5 μg for PE-treated cells and 60 μg for basal cells.
Fluorescent dye Oregon Green 514 (OR) (Molecular Probes) was used to label the healthy/basal cells while Rhodamine Red (RR) (Molecular Probes) was used to label the PE-treated cells. The labeling procedures were carried out according to the manufacturer's protocol. […]
as §1, §2

[4] = target: isoleucine tRNA synthetase (Escherichia coli, UniProt P00956); settings: Merck Manual; cited from earlier work
Sequence of isoleucine tRNA synthetase (P00956 whole entry): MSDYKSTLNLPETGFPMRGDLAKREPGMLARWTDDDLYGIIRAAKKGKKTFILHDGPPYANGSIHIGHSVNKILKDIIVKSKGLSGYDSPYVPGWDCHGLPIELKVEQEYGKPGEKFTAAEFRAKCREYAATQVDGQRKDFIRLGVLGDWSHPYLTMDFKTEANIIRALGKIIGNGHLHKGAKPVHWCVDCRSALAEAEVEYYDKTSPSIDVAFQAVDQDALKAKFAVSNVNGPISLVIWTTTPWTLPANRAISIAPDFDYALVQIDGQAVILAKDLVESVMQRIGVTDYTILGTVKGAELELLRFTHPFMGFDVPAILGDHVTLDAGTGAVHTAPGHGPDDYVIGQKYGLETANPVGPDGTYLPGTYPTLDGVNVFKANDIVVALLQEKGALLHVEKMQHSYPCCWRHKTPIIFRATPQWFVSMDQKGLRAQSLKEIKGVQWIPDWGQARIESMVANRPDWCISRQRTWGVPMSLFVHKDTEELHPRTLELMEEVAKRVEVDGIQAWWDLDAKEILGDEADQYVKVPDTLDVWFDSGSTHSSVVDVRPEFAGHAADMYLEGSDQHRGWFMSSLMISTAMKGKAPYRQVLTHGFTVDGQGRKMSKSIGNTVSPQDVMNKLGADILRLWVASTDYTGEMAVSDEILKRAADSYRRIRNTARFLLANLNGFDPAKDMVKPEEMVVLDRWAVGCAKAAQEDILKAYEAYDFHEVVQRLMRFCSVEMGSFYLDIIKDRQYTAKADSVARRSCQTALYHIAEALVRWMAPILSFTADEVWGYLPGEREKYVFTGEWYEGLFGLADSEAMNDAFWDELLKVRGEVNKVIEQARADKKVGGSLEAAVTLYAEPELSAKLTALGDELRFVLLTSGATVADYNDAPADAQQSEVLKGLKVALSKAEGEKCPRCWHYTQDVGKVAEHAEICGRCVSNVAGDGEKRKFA

[5] = test system: Myocytes; test: Proliferation of myocytes with phenylephrine (in vitro model of hypertrophy); type: cell-based, neonatal Wistar rats; settings: 10 μM phenylephrine (PE); cells grown for two more days
[6] = target: T1, Phosphomannose isomerase (Candida albicans, UniProt P34948); settings: in Candida; Wells et al, 1996; cited from earlier work
T1 sequence (P34948 1-441): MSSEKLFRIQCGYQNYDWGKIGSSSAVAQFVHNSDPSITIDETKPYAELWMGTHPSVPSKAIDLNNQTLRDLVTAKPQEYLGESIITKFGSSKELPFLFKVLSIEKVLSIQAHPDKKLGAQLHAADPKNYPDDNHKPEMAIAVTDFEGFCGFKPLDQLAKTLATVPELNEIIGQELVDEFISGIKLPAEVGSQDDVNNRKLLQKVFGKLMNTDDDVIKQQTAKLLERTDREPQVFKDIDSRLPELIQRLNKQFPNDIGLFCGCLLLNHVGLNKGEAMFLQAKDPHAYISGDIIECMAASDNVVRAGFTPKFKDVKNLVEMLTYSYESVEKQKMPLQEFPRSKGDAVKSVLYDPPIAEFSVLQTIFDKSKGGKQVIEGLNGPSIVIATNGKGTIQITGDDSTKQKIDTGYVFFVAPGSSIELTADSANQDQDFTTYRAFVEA

Compound: O=C(O)CNC(=O)c1ccc(-c2ccco2)o1
- Identified Protein(s) [1]: Serine-threonine kinase (gi 474842); Hemopexin precur- sor (Beta-1B-glycoprotein) (P02790); 116 kDa U5 small nuclear ribonucleoprotein component (O08810).

Compound: COc1ccc(Br)c(OC)c1C(=O)NC1(C(=O)O)CCCCC1
- Identified Protein(s) [1]: Translin-associated protein X (Q99598); Hypothetical Protein ORF-1137 (P11260); Integrin alpha-1 (Laminin and collagen receptor VLA-1,CD49a) (P56199_.

Compound: C[C@H](NC(=O)[C@@H]1CCCCNC(=O)N1)C(=O)O [HY1]
- Identified Protein(s) [2]: Protein kinase C binding protein 1 also contains a zinc finger domain with protein 8) (Q9U1U4); Guanine nucle- otide-binding protein G(S), alpha subunit (Adenylate cy- clase-stimulating G alpha protein) (P048949).

Compound: O=C1NCCC[C@@H](C(=O)N[C@@H](CCc2ccccc2)C(=O)O)N1 [HY2]
- Identified Protein(s) [2]: Protein kinase byr2 (Protein kinase ste8) (MAP kinase) (P28829); Similar to protein kinase 2 (Testicular) (Q885R6); Thiamine-triphosphatase (Q8CgV7).

Compound: O=C(O)c1ccc(CN2C[C@@H](CN(C(=O)c3ccccc3)C3(C(=O)O)CCCC3)N3C(=O)c4ccccc4[C@H]23)cc1 [HY3]
- Identified Protein(s) [3]: NADH-ubiquinone oxidoreductase B14 subunit (Q9CQZ5).

Compound: O=C1c2ccccc2[C@@H]2N(Cc3ccc(O)cc3)C[C@@H](CN(C(=O)CCc3ccccc3)C3(C(=O)O)CCCC3)N12 [HY4]
- Identified Protein(s) [3]: NADH-ubiquinone oxidoreductase B14 subunit (Q9CQZ5).

Compound: CC(CCc1ccccc1)N1C[C@@H](CN2Cc3ccccc3CC2C(=O)O)N2C(=O)c3ccccc3[C@H]12 (stereo partly shown) [HY5]
- Identified Protein(s) [3]: Myosin Va (Myosin 5A, dilute myosin heavy chain, non muscle (Q9Y411).

Compound: C/C(=C\C(=O)OCCCCCCCCC(=O)O)C[C@@H]1OC[C@H](C[C@@H]2O[C@H]2[C@@H](C)[C@H](C)O)[C@@H](O)[C@H]1O [Mupirocin]
- inhibition of isoleucine tRNA synthetase [4]: inhibits the enzyme isoleucine tRNA synthetase

Compound: CNC[C@H](O)c1cccc(O)c1 [PE, phenylephrine]
- cell size at time of harvest [5]: significantly enlarged

Compound: Nc1ccc(S(=O)(=O)Nc2ncccn2)cc1 [sulfadiazene]
- inhibition of phosphomannose isomerase [6]: inhibited

From patent US20060257875A1, “Affinity screening using "one-bead-one-compound" libraries” (Carlsberg A/S, priority 2003, published 2006)
